Test results from ChEMBL document CHEMBL5385906, “Discovery of a Potent, Selective, and Orally Bioavailable Tool Compound for Probing the Role of Lysophosphatidic Acid Type 2 Receptor Antagonists in Fibrotic Disorders” (J Med Chem, 2023).
pIC50: −log10 of the molar value.

How the values were obtained:
[1] = biological target: Lysophosphatidic acid receptor 2 (Homo sapiens, UniProt Q9HBW0)
Description: Antagonist activity at human LPA2 receptor expressed in CHO cells assessed as inhibition of LPA-induced calcium mobilization pretreated for 15 mins followed by LPA stimulation by FLIPR analysis

[2] = biological target: Lysophosphatidic acid receptor 1 (Homo sapiens, UniProt Q92633)
Lysophosphatidic acid receptor 1, sequence (Q92633 whole entry): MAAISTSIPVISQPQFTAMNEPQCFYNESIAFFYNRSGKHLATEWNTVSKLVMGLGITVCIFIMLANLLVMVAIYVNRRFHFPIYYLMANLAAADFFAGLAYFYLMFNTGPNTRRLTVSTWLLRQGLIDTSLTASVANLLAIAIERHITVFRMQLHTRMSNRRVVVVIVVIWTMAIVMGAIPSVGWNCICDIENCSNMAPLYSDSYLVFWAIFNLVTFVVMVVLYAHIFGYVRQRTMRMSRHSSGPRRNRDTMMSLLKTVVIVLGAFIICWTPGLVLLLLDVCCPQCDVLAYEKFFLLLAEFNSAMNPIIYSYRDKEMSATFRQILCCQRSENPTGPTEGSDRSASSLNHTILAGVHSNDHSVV
Description: Antagonist activity at human LPA1 receptor expressed in CHO cells assessed as inhibition of LPA-induced calcium mobilization pretreated for 15 mins followed by LPA stimulation by FLIPR analysis

Lysophosphatidic acid receptor 2, sequence (Q9HBW0 whole entry): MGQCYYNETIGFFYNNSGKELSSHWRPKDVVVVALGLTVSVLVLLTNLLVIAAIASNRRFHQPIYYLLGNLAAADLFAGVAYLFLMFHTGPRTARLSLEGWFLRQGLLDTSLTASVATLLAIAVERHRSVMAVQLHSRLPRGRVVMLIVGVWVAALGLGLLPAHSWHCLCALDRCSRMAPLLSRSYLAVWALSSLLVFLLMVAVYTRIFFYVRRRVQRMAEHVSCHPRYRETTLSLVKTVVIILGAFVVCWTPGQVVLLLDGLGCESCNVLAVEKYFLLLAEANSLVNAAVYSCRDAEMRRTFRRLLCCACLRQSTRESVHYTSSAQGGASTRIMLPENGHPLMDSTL

Structure (SMILES) | pIC50 [1] | pIC50 [2]
C[C@@H](CN1CCN(S(=O)(=O)c2ccc(Cl)c(Cl)c2)CC1)Nc1ncnc2cnn(C)c12 | 4.76 | 
COC(=O)Nc1nc(C)c(S(=O)(=O)N2CCN(C[C@H](C)Nc3ncnc4c(C(F)(F)F)cccc34)CC2)s1 | 7.35 | 
Cc1csc2c(N[C@@H](C)C(=O)N3CCN(S(=O)(=O)c4ccc(Cl)c(Cl)c4)CC3)ncnc12 |  | < 4.30
Cc1csc2c(N[C@@H](C)CN3CCN(S(=O)(=O)c4ccc(Cl)c(Cl)c4)CC34CC4)ncnc12 | 5.03 | 
Cc1csc2c(NC3(CN4CCN(S(=O)(=O)c5ccc(Cl)c(Cl)c5)CC4)CC3)ncnc12 | 5.08 | 
Cc1csc2c(N[C@@H](C)CN3CC4CC3CN4S(=O)(=O)c3ccc(Cl)c(Cl)c3)ncnc12 (some centres not stated) | 4.95 | 4.74
Cc1noc(-c2ccc(S(=O)(=O)N3CCN(C[C@H](C)Nc4ncnc5c(C)csc45)CC3)s2)c1C | 7.36 | 
CC(=O)Nc1ccc(S(=O)(=O)N2CCN(C[C@H](C)Nc3ncnc4c(C)csc34)CC2)cn1 | 4.86 | < 4.30
Cc1csc2c(N[C@@H](C)CNC3CCN(S(=O)(=O)c4ccc(Cl)c(Cl)c4)CC3)ncnc12 | 4.77 | 
CC(=O)Nc1ccc(S(=O)(=O)N2CCN(C[C@H](C)Nc3ncnc4c(C)csc34)CC2)cc1Cl | 5.39 | 
Cc1csc2c(N3CCC[C@H]3CN3CCN(S(=O)(=O)c4ccc(Cl)c(Cl)c4)CC3)ncnc12 | 4.52 | 
Cc1csc2c(N[C@@H](C)CN3CCN(S(=O)(=O)C(=O)c4ccc(Cl)c(Cl)c4)CC3)ncnc12 | 4.79 | 
Cc1csc2c(N[C@@H](C)CN3CCC(NS(=O)(=O)c4ccc(Cl)c(Cl)c4)CC3)ncnc12 | 5.18 | 
CC[C@@H](CN1CCN(S(=O)(=O)c2ccc(Cl)c(Cl)c2)CC1)Nc1ncnc2c(C)csc12 | 5.21 | 
CC(=O)Nc1ncc(S(=O)(=O)N2CCN(C[C@H](C)Nc3ncnc4c(C)csc34)CC2)s1 | 5.34 | 
Cc1csc2c(N[C@@H](C)CN3CCN(S(=O)(=O)C4CCCCC4)CC3)ncnc12 | 4.60 | 
Cc1ccc(S(=O)(=O)N2CCN(C[C@H](C)Nc3ncnc4c(C)csc34)CC2)cc1C | 5.55 | 
Cc1csc2c(N[C@@H](C)CN3CCN(S(=O)(=O)c4ccc(Cl)cc4Cl)CC3)ncnc12 | 5.44 | 
CC(CN1CCN(S(=O)(=O)c2ccc(Cl)c(Cl)c2)CC1)Nc1ncnc2c1ncn2C (racemic) | 4.72 | 4.69
CC(CN1CCN(S(=O)(=O)c2ccc(Cl)c(Cl)c2)CC1)Nc1ccncn1 (racemic) |  | 4.66
Cc1csc2c(NC(C)CN3CCN(S(=O)(=O)c4ccc(Cl)c(Cl)c4)CC3)cccc12 (racemic) | < 4.30 | 

Next, values leading:

pIC50 [1] | pIC50 [2] | Structure (SMILES)
4.80 |  | C[C@@H](CN1CCN(S(=O)(=O)c2ccc(Cl)c(Cl)c2)CC1)Nc1ncnc2cc[nH]c12
4.74 |  | C[C@@H](CN1CCN(S(=O)(=O)c2ccc(Cl)c(Cl)c2)CC1)Nc1ncnc2cc(C(F)(F)F)ccc12
8.24 |  | Cc1noc(-c2ccc(S(=O)(=O)N3CCN(C[C@H](C)Nc4ncnc5c(C(F)(F)F)cccc45)CC3)s2)c1C
4.45 |  | Cc1csc2c(N[C@@H](C)CNC3CCC(NS(=O)(=O)c4ccc(Cl)c(Cl)c4)CC3)ncnc12 (some centres not stated)
5.09 |  | C[C@@H](CN1CCN(S(=O)(=O)c2ccc(Cl)c(Cl)c2)CC1)Nc1ncnc2ccn(C)c12
6.25 |  | Cc1csc2c(N[C@@H](C)CN3CCN(S(=O)(=O)c4ccc(F)c(Cl)c4)CC3)ncnc12
4.95 |  | Cc1csc2c(N[C@@H](C)CN3CCN(S(=O)(=O)c4ccccc4)CC3)ncnc12
4.87 | 4.98 | Cc1cc2ncnc(NC(C)CN3CCN(S(=O)(=O)c4ccc(Cl)c(Cl)c4)CC3)c2s1 (racemic)
4.84 |  | Cc1csc2c(NCC(C)N3CCN(S(=O)(=O)c4ccc(Cl)c(Cl)c4)CC3)ncnc12 (stereo in doubt; 6a)
5.21 |  | Cc1csc2c(NCC(C)N3CCN(S(=O)(=O)c4ccc(Cl)c(Cl)c4)CC3)ncnc12 (stereo in doubt; 6b)
< 4.30 | < 4.30 | Cc1cccc2c(NC(C)CN3CCN(S(=O)(=O)c4ccc(Cl)c(Cl)c4)CC3)ncnc12 (stereo in doubt; 42a)
